Patent publication US20260248135A1, “HERBICIDAL COMBINATIONS AND A METHOD FOR CONTROLLING UNDESIRED VEGETATION” (UPL Mauritius Limited, priority 2022, published 2026)

What was measured:
Assay type in all cases: in vivo
Brachiaria decumbens [1] = assay: Post-emergence herbicidal efficacy, Example 2 (L-glufosinate ammonium, saflufenacil and triclopyr)
Experimental: (§1) Methodology: Trials were carried out to evaluate the efficacy of the combination comprising L-glufosinate ammonium and additional herbicides on Brachiaria decumbens weed.
(§2) The soil used was sandy clay loam-sand: 68.0%; silt: 8.0%; clay: 24.0%.
(§3) All treatments were in 3 replications per treatment with a spray volume of about 150 L/ha.
(§4) The expected efficacy of a combination of L-glufosinate ammonium and the other herbicides was calculated using the well-established Colby method. Any difference between the observed and “expected” efficacy could be attributed to synergy between the two compounds.
(§5) In the Colby method, the expected (or predicted) response of a combination of herbicides is calculated by taking the product of the observed response for each individual component of the combination when applied alone, divided by 100, and subtracting this value from the sum of the observed response for each component when applied alone. An unexpected enhancement in efficacy of the combination is then determined by comparing the observed response of the combination to the expected (or predicted) response as calculated from the observed response of each individual component alone. If the observed response of the combination is greater than the expected (or predicted) response, or stated conversely, if the difference between the observed and expected response is greater than zero, then the combination is said to be synergistic or unexpectedly effective (Colby, S. R., Weeds, 1967 (15), p. 20-22). The Colby method requires only a single dose of each herbicide applied alone and the mixture of both doses. The formula used to calculate the expected efficacy (EE) which was compared with the observed efficacy (OE) to determine the efficacy of the present disclosure is explained hereinbelow:
(§6) The expected efficacy for a combination of three active ingredients is as follows:
(§7) wherein, • A=Observed efficacy of active ingredient A at the same concentration as used in the mixture. • B=Observed efficacy of the active ingredient B at the same concentration as used in the mixture. • C=Observed efficacy of the active ingredient C at the same concentration as used in the mixture.
Experiment was conducted to assess the efficacy of the herbicidal combination comprising L-glufosinate ammonium, saflufenacil and triclopyr to control the weed Brachiaria decumbens.
The percentage efficacy was calculated after 3, 7, 14, 21, 28 and 35 days of application (DAA). The target weed was Brachiaria decumbens, and the concentration of the herbicide and the results are recorded in Table 3.

Brachiaria decumbens [2] = assay: Post-emergence herbicidal efficacy, Example 1 (L-glufosinate ammonium and saflufenacil)
Experimental: as §1, §2, §3, §4, §5
The expected efficacy for a combination of two active ingredients is as follows:
as §7
Experiment was conducted to assess the efficacy of the herbicidal combination comprising L-glufosinate ammonium and saflufenacil to control Brachiaria decumbens.
The percentage efficacy was calculated after 3, 7, 14, 21, 28 and 35 days of applications (DAA). The target weed was Brachiaria decumbens, and the results are recorded in Table 2.

Brachiaria decumbens [3] = assay: Post-emergence herbicidal efficacy, Example 3 (L-glufosinate ammonium, saflufenacil and 2,4-D)
Experimental: as §1, §2, §3, §4, §5, §6, §7
Experiment was conducted to assess the efficacy of the herbicidal combination comprising L-glufosinate ammonium, saflufenacil and 2,4-D to control the weed Brachiaria decumbens.
The target weed was Brachiaria decumbens, and the concentration of the herbicide and the results are recorded in Table 4.

CP(=O)(O)CC[C@H](N)C(=O)O.N [L-glufosinate ammonium]
Observed efficacy (%) of L-glufosinate ammonium (150 g a.i./ha) (Brachiaria decumbens [1]; 3 DAA): 65%
Observed efficacy (%) of L-glufosinate ammonium (150 g a.i./ha) (Brachiaria decumbens [1]; 7 DAA): 75%
Observed efficacy (%) of L-glufosinate ammonium (150 g a.i./ha) (Brachiaria decumbens [1]; 14 DAA): 75%
Observed efficacy (%) of L-glufosinate ammonium (150 g a.i./ha) (Brachiaria decumbens [1]; 21 DAA): 70%
Observed efficacy (%) of L-glufosinate ammonium (150 g a.i./ha) (Brachiaria decumbens [1]; 28 DAA): 65%
Observed efficacy (%) of L-glufosinate ammonium (150 g a.i./ha) (Brachiaria decumbens [1]; 35 DAA): 60%
Observed efficacy (%) of L-glufosinate ammonium (150 g a.i./ha) (Brachiaria decumbens [2]; 3 DAA): 65%
Observed efficacy (%) of L-glufosinate ammonium (150 g a.i./ha) (Brachiaria decumbens [2]; 7 DAA): 75%
Observed efficacy (%) of L-glufosinate ammonium (150 g a.i./ha) (Brachiaria decumbens [2]; 14 DAA): 75%
Observed efficacy (%) of L-glufosinate ammonium (150 g a.i./ha) (Brachiaria decumbens [2]; 21 DAA): 70%
Observed efficacy (%) of L-glufosinate ammonium (150 g a.i./ha) (Brachiaria decumbens [2]; 28 DAA): 60%
Observed efficacy (%) of L-glufosinate ammonium (150 g a.i./ha) (Brachiaria decumbens [2]; 35 DAA): 55%
Observed efficacy (%) of L-glufosinate ammonium (150 g a.i./ha) (Brachiaria decumbens [3]; 3 DAA): 65%
Observed efficacy (%) of L-glufosinate ammonium (150 g a.i./ha) (Brachiaria decumbens [3]; 7 DAA): 75%
Observed efficacy (%) of L-glufosinate ammonium (150 g a.i./ha) (Brachiaria decumbens [3]; 14 DAA): 75%
Observed efficacy (%) of L-glufosinate ammonium (150 g a.i./ha) (Brachiaria decumbens [3]; 21 DAA): 70%
Observed efficacy (%) of L-glufosinate ammonium (150 g a.i./ha) (Brachiaria decumbens [3]; 28 DAA): 65%
Observed efficacy (%) of L-glufosinate ammonium (150 g a.i./ha) (Brachiaria decumbens [3]; 35 DAA): 60%

O=C(O)COc1nc(Cl)c(Cl)cc1Cl [Triclopyr]
Observed efficacy (%) of Triclopyr (228 g a.i./ha) (Brachiaria decumbens [1]; 3 DAA): 0%
Observed efficacy (%) of Triclopyr (228 g a.i./ha) (Brachiaria decumbens [1]; 7 DAA): 0%
Observed efficacy (%) of Triclopyr (228 g a.i./ha) (Brachiaria decumbens [1]; 14 DAA): 20%
Observed efficacy (%) of Triclopyr (228 g a.i./ha) (Brachiaria decumbens [1]; 21 DAA): 10%
Observed efficacy (%) of Triclopyr (228 g a.i./ha) (Brachiaria decumbens [1]; 28 DAA): 5%
Observed efficacy (%) of Triclopyr (228 g a.i./ha) (Brachiaria decumbens [1]; 35 DAA): 0%

CC(C)N(C)S(=O)(=O)NC(=O)c1cc(-n2c(=O)cc(C(F)(F)F)n(C)c2=O)c(F)cc1Cl [Saflufenacil]
Observed efficacy (%) of Saflufenacil (30 g a.i./ha) (Brachiaria decumbens [1]; 3 DAA): 30%
Observed efficacy (%) of Saflufenacil (30 g a.i./ha) (Brachiaria decumbens [1]; 7 DAA): 30%
Observed efficacy (%) of Saflufenacil (30 g a.i./ha) (Brachiaria decumbens [1]; 14 DAA): 20%
Observed efficacy (%) of Saflufenacil (30 g a.i./ha) (Brachiaria decumbens [1]; 21 DAA): 5%
Observed efficacy (%) of Saflufenacil (30 g a.i./ha) (Brachiaria decumbens [1]; 28 DAA): 0%
Observed efficacy (%) of Saflufenacil (30 g a.i./ha) (Brachiaria decumbens [1]; 35 DAA): 0%
Observed efficacy (%) of Saflufenacil (30 g a.i./ha) (Brachiaria decumbens [2]; 3 DAA): 30%
Observed efficacy (%) of Saflufenacil (30 g a.i./ha) (Brachiaria decumbens [2]; 7 DAA): 30%
Observed efficacy (%) of Saflufenacil (30 g a.i./ha) (Brachiaria decumbens [2]; 14 DAA): 25%
Observed efficacy (%) of Saflufenacil (30 g a.i./ha) (Brachiaria decumbens [2]; 21 DAA): 10%
Observed efficacy (%) of Saflufenacil (30 g a.i./ha) (Brachiaria decumbens [2]; 28 DAA): 0%
Observed efficacy (%) of Saflufenacil (30 g a.i./ha) (Brachiaria decumbens [2]; 35 DAA): 0%
Observed efficacy (%) of Saflufenacil (30 g a.i./ha) (Brachiaria decumbens [3]; 3 DAA): 30%
Observed efficacy (%) of Saflufenacil (30 g a.i./ha) (Brachiaria decumbens [3]; 7 DAA): 30%
Observed efficacy (%) of Saflufenacil (30 g a.i./ha) (Brachiaria decumbens [3]; 14 DAA): 20%
Observed efficacy (%) of Saflufenacil (30 g a.i./ha) (Brachiaria decumbens [3]; 21 DAA): 5%
Observed efficacy (%) of Saflufenacil (30 g a.i./ha) (Brachiaria decumbens [3]; 28 DAA): 0%
Observed efficacy (%) of Saflufenacil (30 g a.i./ha) (Brachiaria decumbens [3]; 35 DAA): 0%

O=C(O)COc1ccc(Cl)cc1Cl [2,4-D]
Observed efficacy (%) of 2,4-D (228 g a.i./ha) (Brachiaria decumbens [3]; 3 DAA): 0%
Observed efficacy (%) of 2,4-D (228 g a.i./ha) (Brachiaria decumbens [3]; 7 DAA): 0%
Observed efficacy (%) of 2,4-D (228 g a.i./ha) (Brachiaria decumbens [3]; 14 DAA): 0%
Observed efficacy (%) of 2,4-D (228 g a.i./ha) (Brachiaria decumbens [3]; 21 DAA): 0%
Observed efficacy (%) of 2,4-D (228 g a.i./ha) (Brachiaria decumbens [3]; 28 DAA): 0%
Observed efficacy (%) of 2,4-D (228 g a.i./ha) (Brachiaria decumbens [3]; 35 DAA): 0%
